Assay results taken from ChEMBL document CHEMBL5576062 (Bioorg Med Chem Lett, 2024).
Calls of active or inactive are those of the source. The rule behind the calls is not given here.

system: not listed separately; experiment: Binding affinity to Zinc ion assessed as metal chelating activity at approximately 1 uM

Activity | SMILES
Active | COc1ccc(Cn2ccc3ccc(C(=O)NO)cc32)cc1

biological target: T1, Histone deacetylase 8 (Homo sapiens, UniProt Q9BY41); experiment: Inhibition of HDAC8 (unknown origin) by SAMDI high throughput mass spectrometry
T1 sequence (Q9BY41 whole entry): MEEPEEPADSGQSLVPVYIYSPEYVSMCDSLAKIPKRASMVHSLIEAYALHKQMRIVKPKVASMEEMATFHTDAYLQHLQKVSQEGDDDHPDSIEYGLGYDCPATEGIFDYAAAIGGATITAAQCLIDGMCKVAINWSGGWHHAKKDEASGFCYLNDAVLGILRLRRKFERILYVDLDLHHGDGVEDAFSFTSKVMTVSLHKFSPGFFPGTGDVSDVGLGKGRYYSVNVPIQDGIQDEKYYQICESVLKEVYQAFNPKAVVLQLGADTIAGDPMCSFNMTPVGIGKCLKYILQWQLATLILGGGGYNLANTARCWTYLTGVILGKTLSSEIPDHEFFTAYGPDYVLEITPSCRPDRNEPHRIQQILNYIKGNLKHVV

IC50 | SMILES
> 1000 µM | COc1ccc(Cn2ccc3ccc(C(=O)NS(C)(=O)=O)cc32)cc1
890 µM | COc1ccc(Cn2ccc3ccc(C(=O)NCC(C)O)cc32)cc1 (stereo not given)
150 µM | COc1ccc(Cn2ccc3ccc(C(=O)Nc4ccccc4N)cc32)cc1
> 1000 µM | COc1ccc(Cn2ccc3ccc(C(=O)N/N=C\c4ccccc4O)cc32)cc1
240 µM | CCC(=O)Cc1ccc2ccn(Cc3ccc(OC)cc3)c2c1
120 µM | CCC(=O)c1ccc2ccn(Cc3ccc(OC)cc3)c2c1
200 µM | COc1ccc(Cn2ccc3ccc(C(=O)c4cc(C)on4)cc32)cc1
140 µM | COc1ccc(Cn2ccc3ccc(-c4noc(=O)[nH]4)cc32)cc1
360 µM | COc1ccc(Cn2ccc3ccc(C(=O)Nc4ccccc4SC)cc32)cc1
490 µM | COc1ccc(Cn2ccc3ccc(NC(=O)c4ccccn4)cc32)cc1
130 µM | COc1ccc(Cn2ccc3ccc(NC(=O)c4ccccc4N)cc32)cc1
360 µM | COc1ccc(Cn2ccc3ccc(NC(=O)c4ccccc4O)cc32)cc1
320 µM | COc1ccc(Cn2ccc3ccc(C(=O)NS(=O)(=O)N(C)C)cc32)cc1
> 1000 µM | COc1ccc(Cn2ccc3ccc(-c4noc(C(F)(F)F)n4)cc32)cc1
330 µM | COc1ccc(Cn2ccc3ccc(-c4noc(=S)[nH]4)cc32)cc1
170 µM | COc1ccc(Cn2ccc3ccc(C(=O)NCCO)cc32)cc1
210 µM | COc1ccc(Cn2ccc3ccc(C(=O)c4nccs4)cc32)cc1
> 1000 µM | COc1ccc(Cn2ccc3ccc(-c4nn[nH]n4)cc32)cc1
220 µM | COc1ccc(Cn2ccc3ccc(C(=O)Nc4ccccc4O)cc32)cc1
570 µM | COc1ccc(Cn2ccc3ccc(C(=O)C(F)(F)F)cc32)cc1
340 µM | COc1ccc(Cn2ccc3ccc(/C(N)=N/O)cc32)cc1
340 µM | COc1ccc(Cn2ccc3ccc(NC(=O)c4ccccc4SC)cc32)cc1

SMILES | IC50
NC(Cc1ccc(Cl)cc1Cl)C(=O)N1Cc2ccccc2C1 (stereo not given) | 7.9 µM

system: not listed separately; experiment: Binding affinity to Zinc ion assessed as metal chelating activity

SMILES | Activity
NC(Cc1ccc(Cl)cc1Cl)C(=O)N1Cc2ccccc2C1 (stereo not given) | inactive
